In BigSolDB 2.1:

Cn1nccc1O
solubility (mole fraction)
Conditions | 278.15 K | 283.15 K | 288.15 K | 293.15 K | 298.15 K | 303.15 K | 308.15 K | 313.15 K | 318.15 K
in ethanol | 0.0822 | 0.0959 | 0.112 | 0.129 | 0.149 | 0.171 | 0.194 | 0.216 | 0.247
in ethyl acetate | 0.000394 | 0.000668 | 0.00119 | 0.00222 | 0.00348 | 0.00603 | 0.00922 | 0.0154 | 0.0245
in isobutanol | 0.1 | 0.118 | 0.138 | 0.161 | 0.183 | 0.208 | 0.242 | 0.272 | 0.308
in isopropanol | 0.079 | 0.0911 | 0.106 | 0.122 | 0.141 | 0.162 | 0.186 | 0.209 | 0.24
in methanol | 0.0905 | 0.107 | 0.126 | 0.146 | 0.172 | 0.201 | 0.234 | 0.266 | 0.308
in methyl acetate | 0.00741 | 0.00888 | 0.0109 | 0.0128 | 0.0156 | 0.0187 | 0.0217 | 0.0258 | 0.0312
in n-butanol | 0.0789 | 0.09 | 0.105 | 0.121 | 0.139 | 0.159 | 0.177 | 0.2 | 0.231
in n-butyl acetate | 0.000681 | 0.00102 | 0.00149 | 0.00216 | 0.00302 | 0.00433 | 0.00601 | 0.00846 | 0.0125
in n-pentyl acetate | 0.00428 | 0.00553 | 0.00705 | 0.0087 | 0.011 | 0.0138 | 0.0169 | 0.0201 | 0.0261
in n-propanol | 0.0801 | 0.0922 | 0.109 | 0.127 | 0.143 | 0.165 | 0.185 | 0.211 | 0.245
in n-propyl acetate | 0.000277 | 0.0005 | 0.000774 | 0.00138 | 0.00218 | 0.0032 | 0.00511 | 0.00843 | 0.0124
in sec-butanol | 0.0889 | 0.101 | 0.117 | 0.135 | 0.154 | 0.173 | 0.195 | 0.219 | 0.251
